The supplement of paper PMC11562712
Counter-ions that a name gives are not always drawn.

Assay: first-order primary biodegradation rate constant k (sorption-corrected, fDis-corrected) (d-1); higher = faster biodegradation
Summary of the method: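 Each of 129 compounds was spiked at 1 μg L^–1 into river water containing sieved sediment (50 g wet solid L^–1) from German, Swiss, Spanish and Greek river segments, then shaken in darkness at 20.5 ± 3.5 °C, the river water temperature, for 10 days in three replicates. Filtered samples of the water phase were measured by ultra-high-performance liquid chromatography coupled to Orbitrap tandem mass spectrometry. First-order k values came from log peak-area regression, corrected for sorption-control dissipation under azide sterilisation and divided by dissolved fraction, and invalid fits were left out.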

[1] = river segment: Germany (DE) H_Contam, incubation temperature 24 °C
[2] = river segment: Germany (DE) T_Contam, incubation temperature 24 °C
[3] = river segment: Germany (DE) T_Pris, incubation temperature 24 °C
[4] = river segment: Greece (EL) A_Contam, incubation temperature 19 °C
[5] = river segment: Greece (EL) G_Contam, incubation temperature 19 °C
[6] = river segment: Greece (EL) G_Pris, incubation temperature 19 °C
[7] = river segment: Greece (EL) L_Contam, incubation temperature 19 °C
[8] = river segment: Spain (ES) B_Contam, incubation temperature 24 °C
[9] = river segment: Spain (ES) C_Contam, incubation temperature 24 °C
[10] = river segment: Spain (ES) F_Pris_Salt, incubation temperature 24 °C
[11] = river segment: Spain (ES) L_Contam, incubation temperature 24 °C
[12] = river segment: Switzerland (CH) C_Contam, incubation temperature 17 °C
[13] = river segment: Switzerland (CH) R_Contam, incubation temperature 17 °C
[14] = river segment: Switzerland (CH) U_Contam, incubation temperature 17 °C
[15] = river segment: Switzerland (CH) U_Pris, incubation temperature 17 °C

CC(C)NCC(O)c1ccc(NS(C)(=O)=O)cc1 (centres undefined) [Sotalol]
first-order primary biodegradation rate constant k [1]: 0.132
first-order primary biodegradation rate constant k [2]: 0.195
first-order primary biodegradation rate constant k [3]: 0.076
first-order primary biodegradation rate constant k [4]: 0.193
first-order primary biodegradation rate constant k [5]: 0.107
first-order primary biodegradation rate constant k [6]: 0.0804
first-order primary biodegradation rate constant k [7]: 0.337
first-order primary biodegradation rate constant k [8]: 0.147
first-order primary biodegradation rate constant k [9]: 0.232
first-order primary biodegradation rate constant k [10]: 0.0178
first-order primary biodegradation rate constant k [11]: 0.217
first-order primary biodegradation rate constant k [12]: 0.0406
first-order primary biodegradation rate constant k [13]: 0.0937
first-order primary biodegradation rate constant k [14]: 0.108
first-order primary biodegradation rate constant k [15]: 0.171

COc1cc(NS(=O)(=O)c2ccc(N)cc2)nc(OC)n1 [Sulfadimethoxine]
first-order primary biodegradation rate constant k [1]: 0.129
first-order primary biodegradation rate constant k [2]: 0.416
first-order primary biodegradation rate constant k [4]: 0.0824
first-order primary biodegradation rate constant k [5]: 0.0668
first-order primary biodegradation rate constant k [6]: 0.237
first-order primary biodegradation rate constant k [7]: 0.123
first-order primary biodegradation rate constant k [8]: 1.13
first-order primary biodegradation rate constant k [11]: 1.27
first-order primary biodegradation rate constant k [12]: 0.0158
first-order primary biodegradation rate constant k [13]: 0.00496
first-order primary biodegradation rate constant k [15]: 0.0859

Cc1cc(C)nc(NS(=O)(=O)c2ccc(N)cc2)n1 [Sulfamethazine]
first-order primary biodegradation rate constant k [1]: 0.11
first-order primary biodegradation rate constant k [2]: 0.365
first-order primary biodegradation rate constant k [4]: 0.0988
first-order primary biodegradation rate constant k [5]: 0.0667
first-order primary biodegradation rate constant k [6]: 0.729
first-order primary biodegradation rate constant k [7]: 0.357
first-order primary biodegradation rate constant k [11]: 0.9
first-order primary biodegradation rate constant k [15]: 0.0819

Cc1cc(NS(=O)(=O)c2ccc(N)cc2)no1 [Sulfamethoxazole]
first-order primary biodegradation rate constant k [1]: 0.0889
first-order primary biodegradation rate constant k [2]: 0.143
first-order primary biodegradation rate constant k [4]: 0.0196
first-order primary biodegradation rate constant k [5]: 0.0964
first-order primary biodegradation rate constant k [7]: 0.063
first-order primary biodegradation rate constant k [11]: 1.1

COc1ccc(NS(=O)(=O)c2ccc(N)cc2)nn1 [Sulfamethoxypyridazine]
first-order primary biodegradation rate constant k [1]: 0.0977
first-order primary biodegradation rate constant k [2]: 0.382
first-order primary biodegradation rate constant k [4]: 0.161
first-order primary biodegradation rate constant k [5]: 0.396
first-order primary biodegradation rate constant k [6]: 0.441
first-order primary biodegradation rate constant k [7]: 0.195
first-order primary biodegradation rate constant k [11]: 1.07
first-order primary biodegradation rate constant k [12]: 0.0233
first-order primary biodegradation rate constant k [15]: 0.0441

Nc1ccc(S(=O)(=O)Nc2nccs2)cc1 [Sulfathiazole]
first-order primary biodegradation rate constant k [1]: 0.0753
first-order primary biodegradation rate constant k [3]: 0.259
first-order primary biodegradation rate constant k [4]: 1.21
first-order primary biodegradation rate constant k [5]: 1.63
first-order primary biodegradation rate constant k [6]: 1.17
first-order primary biodegradation rate constant k [7]: 0.81
first-order primary biodegradation rate constant k [8]: 0.646
first-order primary biodegradation rate constant k [9]: 0.00288
first-order primary biodegradation rate constant k [10]: 0.0294
first-order primary biodegradation rate constant k [11]: 1.5
first-order primary biodegradation rate constant k [12]: 0.0717
first-order primary biodegradation rate constant k [13]: 0.119
first-order primary biodegradation rate constant k [15]: 0.0554

CCOc1ccccc1OCCN[C@H](C)Cc1ccc(OC)c(S(N)(=O)=O)c1 [Tamsulosin]
first-order primary biodegradation rate constant k [1]: 0.0512
first-order primary biodegradation rate constant k [3]: 0.204
first-order primary biodegradation rate constant k [4]: 0.786
first-order primary biodegradation rate constant k [5]: 1.15
first-order primary biodegradation rate constant k [8]: 0.121
first-order primary biodegradation rate constant k [9]: 0.261
first-order primary biodegradation rate constant k [11]: 0.41
first-order primary biodegradation rate constant k [12]: 0.0347
first-order primary biodegradation rate constant k [13]: 0.0781
first-order primary biodegradation rate constant k [14]: 0.0824
first-order primary biodegradation rate constant k [15]: 0.0624

CCNc1nc(NC(C)(C)C)nc(SC)n1 [Terbutryn]
first-order primary biodegradation rate constant k [2]: 0.0714
first-order primary biodegradation rate constant k [4]: 0.0617
first-order primary biodegradation rate constant k [5]: 0.247
first-order primary biodegradation rate constant k [11]: 0.134
first-order primary biodegradation rate constant k [14]: 0.116
first-order primary biodegradation rate constant k [15]: 0.068

COc1cccc(C2(O)CCCCC2CN(C)C)c1 (centres undefined) [Tramadol]
first-order primary biodegradation rate constant k [1]: 0.0149
first-order primary biodegradation rate constant k [2]: 0.058
first-order primary biodegradation rate constant k [3]: 0.00925
first-order primary biodegradation rate constant k [4]: 0.0025
first-order primary biodegradation rate constant k [6]: 0.0141
first-order primary biodegradation rate constant k [7]: 0.0437
first-order primary biodegradation rate constant k [8]: 0.00653
first-order primary biodegradation rate constant k [9]: 0.00694
first-order primary biodegradation rate constant k [11]: 0.00992
first-order primary biodegradation rate constant k [13]: 0.00497
first-order primary biodegradation rate constant k [14]: 0.0131
first-order primary biodegradation rate constant k [15]: 0.0152

CCOC(=O)CC(O)(CC(=O)OCC)C(=O)OCC [Triethyl citrate]
first-order primary biodegradation rate constant k [2]: 0.275
first-order primary biodegradation rate constant k [3]: 0.0369
first-order primary biodegradation rate constant k [11]: 0.339
first-order primary biodegradation rate constant k [12]: 0.00672
first-order primary biodegradation rate constant k [13]: 0.0597
first-order primary biodegradation rate constant k [14]: 0.127
first-order primary biodegradation rate constant k [15]: 0.0638

COc1cc(Cc2cnc(N)nc2N)cc(OC)c1OC [Trimethoprim]
first-order primary biodegradation rate constant k [1]: 0.173
first-order primary biodegradation rate constant k [3]: 0.612
first-order primary biodegradation rate constant k [4]: 0.431
first-order primary biodegradation rate constant k [5]: 0.993
first-order primary biodegradation rate constant k [6]: 0.704
first-order primary biodegradation rate constant k [7]: 1.57
first-order primary biodegradation rate constant k [8]: 0.192
first-order primary biodegradation rate constant k [9]: 0.383
first-order primary biodegradation rate constant k [10]: 0.726
first-order primary biodegradation rate constant k [11]: 0.758
first-order primary biodegradation rate constant k [12]: 1.11
first-order primary biodegradation rate constant k [13]: 1.65
first-order primary biodegradation rate constant k [14]: 2.23
first-order primary biodegradation rate constant k [15]: 2.52

CCOC(=O)C1CC(=O)C(=C(O)C2CC2)C(=O)C1 (centres undefined) [Trinexapac-ethyl]
first-order primary biodegradation rate constant k [1]: 0.0565
first-order primary biodegradation rate constant k [2]: 0.461
first-order primary biodegradation rate constant k [3]: 0.0811
first-order primary biodegradation rate constant k [4]: 0.435
first-order primary biodegradation rate constant k [5]: 0.0205
first-order primary biodegradation rate constant k [6]: 0.252
first-order primary biodegradation rate constant k [7]: 0.256
first-order primary biodegradation rate constant k [8]: 0.337
first-order primary biodegradation rate constant k [9]: 0.0822
first-order primary biodegradation rate constant k [11]: 0.373
first-order primary biodegradation rate constant k [12]: 0.0493
first-order primary biodegradation rate constant k [13]: 0.149
first-order primary biodegradation rate constant k [14]: 0.178
first-order primary biodegradation rate constant k [15]: 0.195

CCCCC(=O)N(Cc1ccc(-c2ccccc2-c2nnn[nH]2)cc1)[C@H](C(=O)O)C(C)C [Valsartan]
first-order primary biodegradation rate constant k [1]: 0.469
first-order primary biodegradation rate constant k [2]: 0.54
first-order primary biodegradation rate constant k [3]: 0.204
first-order primary biodegradation rate constant k [4]: 0.42
first-order primary biodegradation rate constant k [5]: 0.418
first-order primary biodegradation rate constant k [6]: 0.275
first-order primary biodegradation rate constant k [9]: 0.194
first-order primary biodegradation rate constant k [10]: 0.0324
first-order primary biodegradation rate constant k [11]: 0.374
first-order primary biodegradation rate constant k [12]: 0.186
first-order primary biodegradation rate constant k [13]: 0.52
first-order primary biodegradation rate constant k [14]: 0.556
first-order primary biodegradation rate constant k [15]: 0.429
